Test results as given in patent publication US20200289441A1, “METHODS FOR PROMOTING HAIR GROWTH USING VALPROIC ACID” (FOLLICA, INC., priority 2017, published 2020).

Tests used:
[1] = test system: neofollicle germs in the wound area; experiment: Neofollicle germ formation after full thickness excision (FTE) in mice, counted by confocal imaging and AP staining; format: in vivo, C57BL6/J female mice
Experimental: A study was conducted to assess the degree to which valproic acid could stimulate growth of new hair follicles by in mice when applied after a full thickness excision (FTE) procedure. FTE creates a zone of hair follicles that are 100% newly formed and removes noise from other clouding factors (e.g., migration of pre-existing follicles into the wound) (e.g., as described in Ito et. al., Nature, May 2007, “Wnt-dependent de novo hair follicle regeneration in adult mouse skin after wounding”, the contents of which is herein incorporated by reference in its entirety). The study was conducted with 2 arms (1) vehicle control and (2) 8.3% valproic acid; n=21 mice per arm). Valproic acid or placebo was applied twice daily for 4 days following scab detachment. The resulting data was analyzed and compared to a vehicle compound control cohort.
Day-12 C57BL6/J female mice pups (Jackson Labs) were maintained in cages and fed a high fat diet until day of surgery. […] After 1 hour, the mice were injected with ketamine (70 mg/kg)-xylazine (8 mg/kg), assigned a Study ID, and weight was recorded. […]
The degree of neofollicle germ formation was measured in the wound area, using imaging by confocal microscopy (confocal scanning laser microscope (CSLM) (VivaScope 1500, Lucid Inc., Rochester, N.Y., USA) and counting the number of early hair follicles developing underneath the surface of the skin. […]

total hair counts = settings: topical; male patients with androgenetic alopecia; Jo et al., Journal of Dermatology 2014; cited from earlier work

CCCC(CCC)C(=O)O [Valproic Acid, 2-propylpentanoic acid]
Number of neofollicles versus FTE + vehicle treated controls (in words) ([1]; FTE + VPA 8.3% topical twice daily for 4 days, mice): strong trend indicating increased numbers of neofollicles | Mean count of neofollicles (Primary 1 + Primary 2 scoring categories) ([1]; FTE mice, 8.3% valproic acid in 50% ethanol/30% water/20% propylene glycol, topical 20 uL twice daily for 4 days after scab detachment, n=15, vehicle control 26.3 (n=21), one-tail P 0.066): 37.1 | Total hair count (in words) (total hair counts): increase total hair counts
